Assay results: patent US20250295083A1, “METHODS FOR PRODUCING AN ORGANOGENIC CALLUS AND COMPOSITIONS, SYSTEMS, AND METHODS RELATING THERETO” (Pairwise Plants Services, Inc., priority 2022, published 2025)
Entries after “also recorded” stand apart in the source; their conditions may differ.

Test system: cross sections of the stems (including nodes) of the lateral shoots, cherry variety Sweetheart
Experiment: Callus induction from cut stem cross sections (including nodes) cultured on media
Type: cell-based, sweet cherry (Prunus avium)
Conditions: 24° C., 8 weeks in the dark
Experimental: The cherry variety, Sweetheart, was grown in a greenhouse and stem tissue was collected. The stem tissue was grown in vitro on propagation media (Table 1) at 25° C., 40 μM light with a 16 hour photoperiod until lateral shoots began to emerge. The stem tissue with lateral shoots were grown on the propagation media for no more than 10 days and were collected by day 10.
Leaves and petioles were removed from the lateral shoots and cross sections of the stems (including nodes) of the lateral shoots were cut. The cross sections of the stems were about 0.5 mm wide. For the purpose of inducing callus formation, the cut material was then placed onto either Garin media as described in Garin, E., et al. (1997). Plant cell, tissue and organ culture, 48(2), 83-91, media comprising 2 mg TDZ, media comprising 5 mg TDZ, or media comprising 10 mg TDZ and cultured at 24° C. for 8 weeks in the dark. The plant material was moved to fresh media approximately every three weeks. If endophyte growth was noted as the experiment was progressing, then the media was supplemented with 200 mg/L cefoxatime. Approximately 149 nodes were processed and cultured on the media containing 5 mg TDZ. Approximately 149 nodes were processed and cultured on the media containing 10 mg TDZ. Approximately 324 nodes were processed and cultured on the Garin media. The lateral shoots were cultured for a total of 8 weeks on the medias described above and then observed for the formation of callus.

O=C(Nc1ccccc1)Nc1cnns1 [TDZ, thidiazuron]
Observations (callus formation) (media comprising 2 mg TDZ): Small amount of callus formed
Observations (callus formation) (media comprising 5 mg TDZ): Moderate amount of callus but much
Observations (callus formation) (media comprising 10 mg TDZ (10 mg/L)): many more of the tissues developing callus; also recorded: along with considerably more mass being
tissues forming callus (media comprising 10 mg TDZ): Nearly 100% of tissues forming callus
